Results reported in ChEMBL document CHEMBL1201862, “PubChem BioAssay data set” (2004).
Active and inactive are the calls of the source. Cut-off read from the data, not from the text of the source, for most assays here: actives have a measured AC50 and inactives only a lower limit.

What was measured:
HeLa = assay: ATP-based viability loss in HeLa cells – cell-based, CellTiter-Glo luminescence, cherry-pick samples, cytotoxicity control for MITF activator project, dose response (AID 540259); format: functional; details: Homo sapiens
CAAX prenyl protease 2 [1] = biological target: CAAX prenyl protease 2 (Homo sapiens, UniProt Q9Y256); assay: inhibition of Ras-converting CAAX protease Rce1 – biochemical, yeast membranes, quenched-peptide fluorescence, cherry-pick, dose response (AID 588849)
CAAX prenyl protease 2 [2] = biological target: T1, CAAX prenyl protease 2 (Saccharomyces cerevisiae S288c, UniProt Q03530); format: biochemical
T1 sequence (Q03530 whole entry): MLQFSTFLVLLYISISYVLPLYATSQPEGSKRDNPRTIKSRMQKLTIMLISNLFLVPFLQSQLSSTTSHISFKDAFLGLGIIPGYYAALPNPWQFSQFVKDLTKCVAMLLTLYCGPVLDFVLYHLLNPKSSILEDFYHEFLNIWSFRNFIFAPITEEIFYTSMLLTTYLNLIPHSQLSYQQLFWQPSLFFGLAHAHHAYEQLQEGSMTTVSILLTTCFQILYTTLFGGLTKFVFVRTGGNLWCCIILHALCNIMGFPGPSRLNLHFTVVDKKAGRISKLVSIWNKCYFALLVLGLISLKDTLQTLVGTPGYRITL

Trypsin = Trypsin (Sus scrofa, UniProt P00761); assay: trypsin protease activity blockade – biochemical, quenched peptide fluorescence, cherry-pick, selectivity assay for Rce1 protease inhibitor project, dose response (AID 488789)
Caspase-6 = biological target: T2, Caspase-6 (Homo sapiens, UniProt P55212); assay: inhibition of CASP6 peptide cleavage – biochemical, VEID-R110 fluorescence, cherry-pick, dose response (AID 720632)
T2 sequence (P55212 whole entry): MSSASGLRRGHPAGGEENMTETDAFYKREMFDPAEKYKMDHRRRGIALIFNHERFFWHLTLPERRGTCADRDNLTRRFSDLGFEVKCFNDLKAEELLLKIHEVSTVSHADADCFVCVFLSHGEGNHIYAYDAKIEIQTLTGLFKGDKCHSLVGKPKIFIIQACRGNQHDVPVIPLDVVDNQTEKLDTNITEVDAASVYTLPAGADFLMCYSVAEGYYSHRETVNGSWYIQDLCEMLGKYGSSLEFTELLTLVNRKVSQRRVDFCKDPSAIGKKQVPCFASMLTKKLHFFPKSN

[3] = biological target: Beta-2 adrenergic receptor (Homo sapiens, UniProt P07550); assay: ADRB2 activation measured by internalization – cell-based, FAP fluorogen, flow cytometry, cherry pick 1, dose response (AID 588763); format: functional
Chain of Beta-2 adrenergic receptor (P07550 whole entry): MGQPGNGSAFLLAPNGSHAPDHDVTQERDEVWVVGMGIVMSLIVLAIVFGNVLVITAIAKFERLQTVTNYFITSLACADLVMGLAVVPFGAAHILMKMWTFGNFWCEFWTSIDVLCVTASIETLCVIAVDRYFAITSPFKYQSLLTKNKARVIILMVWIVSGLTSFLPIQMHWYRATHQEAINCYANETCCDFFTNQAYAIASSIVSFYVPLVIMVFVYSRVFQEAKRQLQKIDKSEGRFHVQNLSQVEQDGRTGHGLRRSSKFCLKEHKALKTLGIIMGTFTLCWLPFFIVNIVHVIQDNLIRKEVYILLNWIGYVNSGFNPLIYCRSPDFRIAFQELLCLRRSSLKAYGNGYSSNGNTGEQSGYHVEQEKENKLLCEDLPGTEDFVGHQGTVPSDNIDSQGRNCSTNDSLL

Chain of CAAX prenyl protease 2 (Homo sapiens, UniProt Q9Y256) (Q9Y256 whole entry): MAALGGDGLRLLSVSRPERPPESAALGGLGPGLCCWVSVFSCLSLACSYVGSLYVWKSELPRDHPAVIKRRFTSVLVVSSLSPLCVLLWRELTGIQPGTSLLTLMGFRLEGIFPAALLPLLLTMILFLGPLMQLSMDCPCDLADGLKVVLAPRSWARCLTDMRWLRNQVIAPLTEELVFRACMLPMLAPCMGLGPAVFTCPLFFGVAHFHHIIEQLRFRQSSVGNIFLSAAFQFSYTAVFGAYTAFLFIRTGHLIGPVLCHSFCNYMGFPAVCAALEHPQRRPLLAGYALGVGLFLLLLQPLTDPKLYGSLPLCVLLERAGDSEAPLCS
Chain of Trypsin (P00761 whole entry): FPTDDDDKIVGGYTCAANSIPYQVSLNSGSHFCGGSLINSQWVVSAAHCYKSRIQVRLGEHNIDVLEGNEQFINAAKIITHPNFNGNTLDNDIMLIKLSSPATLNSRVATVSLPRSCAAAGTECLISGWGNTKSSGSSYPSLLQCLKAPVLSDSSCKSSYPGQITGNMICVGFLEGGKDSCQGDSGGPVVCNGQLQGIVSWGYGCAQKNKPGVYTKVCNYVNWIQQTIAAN

## CC1(C)CNC(=O)c2sc(NC(=O)c3ccccc3)nc2C1
HeLa
  AC50: 55 µM (active)

## Nc1ccc(Cc2ccc(N)c(C(=O)O)c2)cc1C(=O)O
CAAX prenyl protease 2 [1]
  AC50: 2.25 µM (active)
CAAX prenyl protease 2 [2]
  AC50: 32.3 µM (active)
Trypsin
  AC50: 7.3 µM (active)
Caspase-6
  AC50: 37.8 µM (active)

## Cc1ccc(OCc2cc(C(=O)NCc3ccc(OC(F)(F)F)cc3)no2)cn1
[3]
  EC50: 0.792 µM (active)

## C/C(=N/OC(=O)CC(C)C)c1cc(-c2ccc(Cl)cc2)no1
HeLa
  AC50: 58.7 µM (active)
